Measurements reported in article PMC11861906, “Structural basis for lipid-mediated activation of G protein-coupled receptor GPR55” (Nature Communications, 2025).

Target: GPR55 mutant R253A (Gα13) (Homo sapiens, UniProt Q9Y2T6, R253A)
Test: BRET² G protein dissociation assay, GPR55 R253A with Gα13
Assay type: cell-based
Source text: To validate the functionality of the GPR55 cryo-EM construct, we conducted bioluminescence resonance energy transfer 2 (BRET²)-based G protein dissociation assays[46],[47] using an engineered heterotrimeric G13 protein. The N-terminal GFP fusion of the receptor was additionally modified with a G67A mutation to disrupt fluorescence properties. We employed human embryonic kidney (HEK) cells overexpressing wt or mutant GPR55 together with Gβ3, Gγ9-GFP, and Gα13 tagged with Renilla luciferase 8 (Rluc8).
G protein dissociation assays were performed according to the original protocols of the TRUPATH BRET² assay[47],[87] but with subtle modifications as previously described[61],[88],[89]. All reagents and cells were obtained from Thermo Fisher Scientific unless indicated otherwise. The coding sequences for the G protein biosensors[47] (Gα12-Rluc8, Gα13-Rluc8, wt Gβ3, and Gγ9-GFP), the wt GPR55, the construct used for cryo-EM (with GFP bearing a G67A mutation to disrupt fluorescence properties[48] for BRET² assays), GPR55 binding pocket mutants (G152^4.56F, G152^4.56W, N171^ECL2Q, N171^ECL2A, T176^5.33A, R253^6.62A), and the wt TBXA2R were codon-optimized for Homo sapiens, gene-synthesized, and sub-cloned into pcDNA^TM3.1(+) between NheI and HindIII restriction sites by GeneArt (Thermo Fisher Scientific). […] Freshly grown cells were washed with Dulbecco’s Balanced Salt Solution (DPBS, cat. #14200075) and detached using trypsin-ethylenediaminetetraacetic acid (trypsin-EDTA) (cat. #25300-062). Then, the cells were reconstituted to 500,000 cells per mL with fresh medium, and 1,000,000 cells were seeded into each well of a 6-well plate. After 3 h incubation at 37 °C and 5% CO2, adherent cells were transfected with 600 ng DNA (1:1:1:1 ratio of plasmid DNA for GPR55, wt Gβ3, Gγ9-GFP, and Gα12-Rluc8 or Gα13-Rluc8). Plasmid DNA was mixed with 1.5 µL Lipofectamine^TM 2000 (cat. #11668027) in Opti-MEM^TM medium (cat. #31985062) and incubated for 20 min. Then, the mixture was added to each well of the 6-well plate following 24 h incubation at 37 °C and 5% CO2. Transfected cells were washed with DPBS, detached using EDTA (Versene, cat. #15040066), and reconstituted into fresh medium at 500,000 cells mL^−1. From this suspension, 50,000 cells were seeded into each well of a white-bottom 96-well plate (Nunc^TM MicroWell^TM 96 wells, cat. #136101) following overnight incubation at 37 °C and 5% CO2. Then, the adherent cells were washed with assay medium [Hank’s balanced salt solution (HBSS, cat. #14065056) plus 20 mM HEPES pH 7.4 (cat. #15630056)] and finally reconstituted into 50 µL of the same medium. […] Methoxy e-Coelenterazine was used as luciferase substrate (Prolume Purple, NanoLight Technology, cat. #369), reconstituted at 1 mM in methanol and diluted to 37.5 µM with assay buffer (7.5 µM final assay concentration). The assay was started by the addition of 20 µL luciferase substrate to each well of the assay plate using a Multidrop^TM Combi reagent dispenser (Thermo Fisher Scientific), followed by 5 min incubation at room temperature. Then, 30 µL of agonist dilutions or DMSO control was added (final DMSO concentration 1.5%), followed by an additional 5 min incubation at room temperature. BRET² measurements were performed with a PHERAstar® FSX microplate reader (BMG LABTECH) using a BRET² filter (donor emission 370–450 nm, acceptor emission 500–530 nm) at the maximum fluorescence gain of 3600. BRET² ratios were calculated by dividing GFP emission signals from Rluc8 emission counts. Buffer-DMSO controls were subtracted from each data point to calculate ΔBRET² ratios.

Chain of GPR55 mutant R253A (Gα13) (Q9Y2T6 whole entry R253A): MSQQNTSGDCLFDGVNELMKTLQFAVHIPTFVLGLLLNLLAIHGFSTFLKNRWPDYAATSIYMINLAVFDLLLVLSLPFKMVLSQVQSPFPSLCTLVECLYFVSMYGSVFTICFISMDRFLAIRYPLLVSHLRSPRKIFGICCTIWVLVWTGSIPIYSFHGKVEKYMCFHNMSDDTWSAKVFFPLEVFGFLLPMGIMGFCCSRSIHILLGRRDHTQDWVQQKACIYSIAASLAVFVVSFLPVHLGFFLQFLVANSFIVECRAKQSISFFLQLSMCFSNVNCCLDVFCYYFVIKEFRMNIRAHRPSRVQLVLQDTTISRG
Chain of GPR55 mutant R253A (Gα13) (Q14344 whole entry partner): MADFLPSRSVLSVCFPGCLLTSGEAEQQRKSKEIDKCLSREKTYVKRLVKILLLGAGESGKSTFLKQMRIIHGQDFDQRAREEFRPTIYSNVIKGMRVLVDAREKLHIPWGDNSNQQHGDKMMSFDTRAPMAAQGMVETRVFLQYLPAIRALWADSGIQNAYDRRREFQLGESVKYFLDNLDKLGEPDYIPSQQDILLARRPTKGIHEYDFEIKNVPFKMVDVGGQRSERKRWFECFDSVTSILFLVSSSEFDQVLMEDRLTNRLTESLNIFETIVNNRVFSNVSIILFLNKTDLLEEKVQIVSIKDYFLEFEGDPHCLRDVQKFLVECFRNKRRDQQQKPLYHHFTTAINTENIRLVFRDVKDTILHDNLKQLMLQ
Chain of GPR55 mutant R253A (Gα13) (P16520 whole entry partner): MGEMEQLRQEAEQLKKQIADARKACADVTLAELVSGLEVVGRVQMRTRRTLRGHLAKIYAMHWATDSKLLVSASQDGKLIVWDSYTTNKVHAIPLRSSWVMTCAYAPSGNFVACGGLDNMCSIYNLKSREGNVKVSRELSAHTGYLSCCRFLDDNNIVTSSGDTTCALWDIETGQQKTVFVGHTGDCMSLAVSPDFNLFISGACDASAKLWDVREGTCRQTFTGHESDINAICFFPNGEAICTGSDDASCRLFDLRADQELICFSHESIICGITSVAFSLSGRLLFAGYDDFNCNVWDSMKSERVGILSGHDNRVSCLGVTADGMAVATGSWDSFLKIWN
Chain of GPR55 mutant R253A (Gα13) (O14610 1-66 partner limits assumed): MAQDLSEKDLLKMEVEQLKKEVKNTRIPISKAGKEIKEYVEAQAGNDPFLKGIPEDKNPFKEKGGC

| Mean (plotted) BRET² response, GPR55-R253A-G13 (Concentration 300 pM) | Mean (plotted) BRET² response, GPR55-R253A-G13 (Concentration 1e-9 M) | Mean (plotted) BRET² response, GPR55-R253A-G13 (Concentration 3e-9 M) | Mean (plotted) BRET² response, GPR55-R253A-G13 (Concentration 1e-8 M) | Mean (plotted) BRET² response, GPR55-R253A-G13 (Concentration 3e-8 M) | Mean (plotted) BRET² response, GPR55-R253A-G13 (Concentration 1e-7 M) | Mean (plotted) BRET² response, GPR55-R253A-G13 (Concentration 3e-7 M) | Mean (plotted) BRET² response, GPR55-R253A-G13 (Concentration 1e-6 M) | Mean (plotted) BRET² response, GPR55-R253A-G13 (Concentration 3e-6 M) | Mean (plotted) BRET² response, GPR55-R253A-G13 (Concentration 1e-5 M) | Mean (plotted) BRET² response, GPR55-R253A-G13 (Concentration 3e-5 M) | EC50 (GPR55 R253A, Gα13) [nM] | increase of potency compared to wt GPR55 (R253A mutant) | Mean (plotted) BRET² response, GPR55-R253A-G13 (Concentration 10 pM) | Mean (plotted) BRET² response, GPR55-R253A-G13 (Concentration 30 pM) | Mean (plotted) BRET² response, GPR55-R253A-G13 (Concentration 100 pM) | SMILES |
| --- | --- | --- | --- | --- | --- | --- | --- | --- | --- | --- | --- | --- | --- | --- | --- | --- |
| -0.01108 | -0.01039 | -0.0289 | -0.05814 | -0.08149 | -0.0987 | -0.1069 | -0.1131 | -0.1166 | -0.1236 | -0.1287 | 14.5 | slightly increased by a factor of three |  |  |  | Cc1cccc(N2CCN(C(=O)c3cc(S(=O)(=O)N(C)C)ccc3N3CCCC3)CC2)c1C [ML184, 3-[[4-(2,3-dimethylphenyl)-1-piperazinyl]carbonyl]-N,N-dimethyl-4-(1-pyrrolidinyl)benzenesulfonamide] |
| -0.008328 | 0.002391 | 0.002546 | 0.001532 | 0.002853 | 0.0008838 | -0.0001645 | -0.0002602 | -0.001768 | -0.005378 | -0.00746 |  |  | 0.0024 | 0.00435 | 0.00475 | CCCCC[C@H](O)/C=C/[C@@H]1[C@@H](C/C=C\CCCC(=O)O)[C@H]2CO[C@@H]1C2 [U-46619] |
